Measurements as given in US8853246B2 (Dow AgroSciences LLC, priority 2009, dated 2014).

Legend:
[1] = test system: Sweetpotato Whitefly-Crawler (Bemisia Tabaci); assay: Insecticidal test for sweetpotato whitefly-crawler in foliar spray assay (col. BEMITA); format: in vivo; conditions: Bemisia tabaci, sweetpotato whitefly-crawler, read-out: BEMITA 200 ppm (Corrected % Control, rating)
Outline: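 Percent control, Abbott-corrected against diluent-sprayed plants, from microscope counts of live nymphs 8-9 days after treatment. Test solution at 200 ppm in 0.025% aqueous Tween 20 applied to both leaf sides of egg-infested cotton after a 5-6 day hatch period (82° F, 50% RH).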

[2] = test system: Green Peach Aphid (Myzus Persicae); assay: Insecticidal test for green peach aphid in foliar spray assay (col. MYZUPE); format: in vivo; conditions: Myzus persicae, 72 h, green peach aphid, read-out: MYZUPE 200 ppm (Corrected % Control, rating)
Outline: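 Corrected % control derives from microscope counts of live aphids per plant, treated against diluent-only checks, 3 days after foliar spraying at ~25 °C and 40% RH. Test solution was 200 ppm in 0.025% aqueous Tween 20, applied to both leaf sides of infested cabbage seedlings, four pots each.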

| Compound | pest or weed control at 200 ppm [1] | melting point | pest or weed control at 200 ppm [2] |
| --- | --- | --- | --- |
| CS[C@H]1CC1C(=O)Nc1sc(-c2cncc(F)c2)nc1C (stereo partly drawn) [Compound 220] | 80 to 100% | 206 to 212 °C | 80 to 100% |
| C=CC[S+]([O-])CC(C)C(=O)Nc1sc(-c2cccnc2)nc1C (stereo not drawn) [Compound 225] | 80 to 100% | 147 to 149 °C | 80 to 100% |
| CCN(C(=O)CC[S+](C)[O-])c1sc(-c2cccnc2)nc1C (stereo not drawn) [Compound 238] | 80 to 100% | 89 to 92 °C | 80 to 100% |
| Cc1nc(-c2cncc(Br)c2)sc1N(C)C(=O)OC(C)(C)C [Compound 251] | 80 to 100% | 74 to 76 °C | < 80% |
| CC(C)C(=O)N(C)c1sc(-c2cncc(F)c2)nc1Cl [Compound 263] | 80 to 100% | 123 to 125 °C | 80 to 100% |
| CSCC(C)(C)C(=O)N(C)c1sc(-c2cccnc2)nc1Cl [Compound 264] | 80 to 100% | 103 to 106 °C | 80 to 100% |
| CC(C)(C)OC(=O)N(COCc1ccccc1)c1cnc(-c2cccnc2)s1 [Compound 265] | < 80% | 98 to 99 °C | 80 to 100% |
| CN(C(=O)c1cnn(C)c1)c1sc(-c2cncc(F)c2)nc1Cl [Compound 268] | 80 to 100% | 151 to 155 °C | 80 to 100% |
| CC(CS(C)(=O)=O)C(=O)N(C)c1sc(-c2cncc(F)c2)nc1Cl (stereo not drawn) [Compound 271] | 80 to 100% | 151 to 154 °C | 80 to 100% |
| CC(C)(C)OC(=O)N(C(=O)OC(C)(C)C)c1cnc(-c2cncc(F)c2)s1 [Compound 277, di(tert-butyl)2-(5-fluoropyridin-3-yl)-1,3-thiazol-5-ylimidodicarbonate] | 80 to 100% | 94 to 96 °C | 80 to 100% |
| CSCC(C)C(=O)N(C)c1sc(-c2cncc(Br)c2)nc1C (stereo not drawn) [Compound 296] | 80 to 100% | 79 to 81 °C | 80 to 100% |
| CC(C)(C)OC(=O)Nc1sc(-c2cncc(F)c2)nc1Br [Compound 297] | < 80% | 164 to 166 °C | < 80% |
| CSCCC(=O)Nc1sc(-c2cncc(F)c2)nc1Br [Compound 298] | < 80% | 160 to 163 °C | 80 to 100% |
| CC(C[S+](C)[O-])C(=O)Nc1sc(-c2cncc(F)c2)nc1Br (stereo not drawn) [Compound 306] | < 80% | 172 to 175 °C | 80 to 100% |
| CC(CS(C)(=O)=O)C(=O)Nc1sc(-c2cncc(F)c2)nc1Br (stereo not drawn) [Compound 307] | < 80% | 185 to 188 °C | 80 to 100% |
| CCN(C(=O)CCSC)c1cnc(-c2cncc(F)c2)s1 [Compound 308] | 80 to 100% | 78 to 81 °C | 80 to 100% |
| Cc1nc(-c2cncc(F)c2)sc1NC(=O)OC(C)(C)C [Compound 309] | < 80% | 160 to 161 °C | < 80% |
| CCN(C(=O)C(C)CSC)c1sc(-c2cccnc2)nc1Cl (stereo not drawn) [Compound 316, N-(4-chloro-2-pyridin-3-yl-thiazol-5-yl)-N-ethyl-2-methyl-3-methylsulfanyl-propionamide] | < 80% | 79 to 81 °C | 80 to 100% |
| CC(C)(C)OC(=O)N(C(=O)OC(C)(C)C)c1sc(-c2cncc(F)c2)nc1Br [Compound 317] | < 80% | 154 to 156 °C | 80 to 100% |

| Compound | pest or weed control at 200 ppm [1] | melting point | pest or weed control at 200 ppm [2] |
| --- | --- | --- | --- |
| CN(C(=O)OC(C)(C)C)c1sc(-c2cncc(F)c2)nc1Br [Compound 318] | < 80% | 108 to 110 °C | 80 to 100% |
| COCC(C)OC(=O)Nc1sc(-c2cccnc2)nc1C (stereo not drawn) [Compound 325] | 80 to 100% | 106 to 111 °C | 80 to 100% |
| CCN(C(=O)C(C)CS(C)(=O)=O)c1sc(-c2cccnc2)nc1Cl (stereo not drawn) [Compound 349] | 80 to 100% | 152 to 154 °C | 80 to 100% |
| CC(C)(C)OC(=O)N(C(=O)OC(C)(C)C)c1sc(-c2cncc(F)c2)nc1Cl [Compound 352] | < 80% | 125 to 128 °C | 80 to 100% |
| Cc1nc(-c2cccnc2)sc1NC(=O)c1cnn(C)c1 [Compound 355] | < 80% | 219 to 222 °C | 80 to 100% |
| C=CCN(C(=O)OC(C)(C)C)c1sc(-c2cccnc2)nc1C [Compound 356] | 80 to 100% | 72 to 76 °C | 80 to 100% |
| CSC(C)C(=O)N(C)c1sc(-c2cccnc2)nc1Cl (stereo not drawn) [Compound 361] | < 80% | 97 to 104 °C | 80 to 100% |
| CN(C(=O)OC(C)(C)C)c1sc(-c2cncc(F)c2)nc1F [Compound 366] | 80 to 100% | 81 to 84 °C | 80 to 100% |
| CSCC(=O)N(C)c1sc(-c2cccnc2)nc1Cl [Compound 369] | 80 to 100% | 111 to 114 °C | 80 to 100% |
| CCSCC(=O)N(C)c1sc(-c2cccnc2)nc1Cl [Compound 370] | 80 to 100% | 68 to 71 °C | 80 to 100% |
| CSCC(=O)Nc1sc(-c2cccnc2)nc1C [Compound 372] | 80 to 100% | 164 to 167 °C | 80 to 100% |
| CCSCC(=O)Nc1sc(-c2cccnc2)nc1C [Compound 373] | 80 to 100% | 157 to 158 °C | 80 to 100% |
| CSCCCC(=O)Nc1sc(-c2cccnc2)nc1C [Compound 374] | 80 to 100% | 110 to 112 °C | 80 to 100% |
| Cc1nc(-c2cccnc2)sc1NC(=O)OC1CCCCC1 [Compound 375] | < 80% | 163 to 167 °C | < 80% |
| CCCC(C)OC(=O)Nc1sc(-c2cccnc2)nc1C (stereo not drawn) [Compound 376] | 80 to 100% | 88 to 94 °C | 80 to 100% |
| CCCCOC(=O)Nc1sc(-c2cccnc2)nc1C [Compound 377] | 80 to 100% | 108 to 110 °C | < 80% |
| Cc1nc(-c2cccnc2)sc1NC(=O)OC(C)C(F)(F)F (stereo not drawn) [Compound 378] | 80 to 100% | 133 to 137 °C | 80 to 100% |
| COCCOC(=O)Nc1sc(-c2cccnc2)nc1C [Compound 379] | < 80% | 131 to 134 °C | 80 to 100% |
